Measured values published in patent US20100098633A1, “SELECTIVE SEPRASE INHIBITORS” (Molecular Insight Pharmaceuticals, Inc., priority 2008, published 2010).
Values belong to the compound of their own block, whether it stands above or below them.

Target: T1, recombinant human seprase (rhFAP) (Homo sapiens, UniProt Q12884)
T1 sequence (Q12884 26-760 limits assumed): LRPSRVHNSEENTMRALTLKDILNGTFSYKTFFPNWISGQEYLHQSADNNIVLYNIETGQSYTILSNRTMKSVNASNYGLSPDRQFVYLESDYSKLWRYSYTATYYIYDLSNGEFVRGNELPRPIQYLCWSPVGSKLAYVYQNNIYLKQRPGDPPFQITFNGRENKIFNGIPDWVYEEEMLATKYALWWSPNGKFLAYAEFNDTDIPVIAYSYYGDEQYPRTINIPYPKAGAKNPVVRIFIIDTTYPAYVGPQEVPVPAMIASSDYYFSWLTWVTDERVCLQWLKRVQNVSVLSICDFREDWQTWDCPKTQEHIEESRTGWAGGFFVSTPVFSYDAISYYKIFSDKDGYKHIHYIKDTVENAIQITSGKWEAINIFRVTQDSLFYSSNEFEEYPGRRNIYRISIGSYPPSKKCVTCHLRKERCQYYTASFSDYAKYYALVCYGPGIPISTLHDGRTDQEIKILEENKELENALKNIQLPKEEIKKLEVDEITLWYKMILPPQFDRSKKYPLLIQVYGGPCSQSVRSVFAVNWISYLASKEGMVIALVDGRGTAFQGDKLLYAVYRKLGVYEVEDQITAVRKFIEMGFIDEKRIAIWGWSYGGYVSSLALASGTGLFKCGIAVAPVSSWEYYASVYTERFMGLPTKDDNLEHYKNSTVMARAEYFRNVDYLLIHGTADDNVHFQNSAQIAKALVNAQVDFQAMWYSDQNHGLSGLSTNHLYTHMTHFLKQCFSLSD
Assay: Inhibition of enzymatic activity of recombinant human seprase on Z-Gly-Pro-AMC (fluorescence)
Assay type: biochemical
Details: for IC50: in vitro data against seprase, read-out: FAP (IC50 nM); for remaining activity at 0.005 µM: inhibitor 0.005 μM; for remaining activity at 0.005 µM / remaining activity at 0.05 µM / remaining activity at 0.5 µM / remaining activity at 5 µM / remaining activity at 500 µM: initial velocity normalized to control without test compound, 50 μM Z-Gly-Pro-AMC, read-out: Percent of Control; for remaining activity at 0.05 µM: inhibitor 0.05 μM; for remaining activity at 0.5 µM: inhibitor 0.5 μM; for remaining activity at 5 µM: inhibitor 5 μM; for remaining activity at 500 µM: inhibitor 500 μM
Procedure: In vitro assaying of compounds for inhibition of dipeptidyl peptidase activity of seprase and DPP-IV can be achieved following the described in Edosada C. Y. et al. J. Biolog. Chem. 2006, 281, 7437-7444.
Selected test compounds were examined for their ability to inhibit the enzymatic activity of recombinant human seprase (rhFAP) on the substrate, benzyloxycarbonyl-Gly-Pro-7-amido-4-methylcoumarin (Z-Gly-Pro-AMC). In brief, 10 μg rhFAP was added to 50 μM Z-Gly-Pro-AMC in the presence of increasing concentrations of test compound, and enzymatic activity was determined by monitoring fluorescence (Ex. 355 nm/Em. 460 nm). Compound 1051 is the known inhibitor, Cbz-Gly-boroproline. Initial velocity of the reaction was calculated and normalized to control reactions conducted in the absence of test compound.
The inhibition was measured by the half maximal inhibitory concentration (IC50) of a compound of interest. The IC50 indicates how much of a particular compound is needed to inhibit seprase by half.

Compound: O=C(NCC(=O)N1CCCC1B(O)O)c1ccccc1I (stereo not shown) [Compound 1023, 1-(2-(2-iodobenzamido)acetyl)pyrrolidin-2-ylboronic acid]
- IC50: 7 nM
- remaining activity at 0.005 µM: 42%
- remaining activity at 0.05 µM: 0%
- remaining activity at 0.5 µM: 0%
- remaining activity at 5 µM: 0%
- remaining activity at 500 µM: 0%

Compound: O=C(NCC(=O)N1CCCC1B(O)O)c1ccc(I)cc1Cl (stereo not shown) [Compound 1026, 1-(2-(2-chloro-4-iodobenzamido)acetyl)pyrrolidin-2-ylboronic acid]
- IC50: 3 nM

Compound: O=C(NCC(=O)N1CCCC1B(O)O)c1cc(I)ccc1Cl (stereo not shown) [Compound 1027, 1-(2-(2-chloro-5-iodobenzamido)acetyl)pyrrolidin-2-ylboronic acid]
- IC50: 5 nM

Compound: O=C(NCC(=O)N1CCCC1B(O)O)c1cc(I)ccc1F (stereo not shown) [Compound 1029, 1-(2-(2-fluoro-5-iodobenzamido)acetyl)pyrrolidin-2-ylboronic acid]
- IC50: 8 nM

Compound: O=C(NCC(=O)N1CCCC1B(O)O)c1cc(I)ccn1 (stereo not shown) [Compound 1033, 1-(2-(4-iodopicolinamido)acetyl)pyrrolidin-2-ylboronic acid]
- IC50: 500 nM

Compound: O=C(NCC(=O)N1CCCC1B(O)O)Nc1ccc(I)cc1 (stereo not shown) [Compound 1034, 1-(2-(3-(4-iodophenyl)ureido)acetyl)pyrrolidin-2-ylboronic acid]
- IC50: 11 nM

Compound: O=C(CN1CCN(Cc2cccc(I)c2)CC1)N1CCCC1B(O)O (stereo not shown) [Compound 1036, 1-(2-(4-(3-iodobenzyl)piperazin-1-yl)acetyl)pyrrolidin-2-ylboronic acid]
- IC50: 37 nM

Compound: N#C[C@@H]1CCCN1C(=O)CNC(=O)c1ccc(I)cc1 [Compound 1039, (S)-N-(2-(2-cyanopyrrolidin-1-yl)-2-oxoethyl)-4-iodobenzamide]
- IC50: 511 nM

Compound: N#C[C@@H]1CCCN1C(=O)CNC(=O)c1cccc(I)c1 [Compound 1040, (S)-N-(2-(2-cyanopyrrolidin-1-yl)-2-oxoethyl)-3-iodobenzamide]
- IC50 values against seprase (in words): low nanomolar range
- IC50: 35 nM

Continued by falling IC50, values first:

- IC50: 340 nM
Compound: NC(Cc1ccc(I)cc1)C(=O)NCC(=O)N1CCCC1B(O)O (stereo not shown) [Compound 1035, 1-(2-(2-amino-3-(4-iodophenyl)propanamido)acetyl)pyrrolidin-2-ylboronic acid]

- IC50: 262 nM
Compound: N#Cc1ccc(I)cc1C(=O)NCC(=O)N1CCCC1B(O)O (stereo not shown) [Compound 1031, 1-(2-(2-cyano-5-iodobenzamido)acetyl)pyrrolidin-2-ylboronic acid]

- IC50: 11 nM
Compound: Cc1ccc(I)cc1C(=O)NCC(=O)N1CCCC1B(O)O (stereo not shown) [Compound 1032, 1-(2-(5-iodo-2-methylbenzamido)acetyl)pyrrolidin-2-ylboronic acid]

- IC50: 5 nM
Compound: O=C(NCC(=O)N1CCCC1B(O)O)c1cc(I)ccc1Br (stereo not shown) [Compound 1028, 1-(2-(2-bromo-5-iodobenzamido)acetyl)pyrrolidin-2-ylboronic acid]

- IC50 values against seprase (in words): low nanomolar range
- IC50: 3 nM
- remaining activity at 0.005 µM: 22%
- remaining activity at 0.05 µM: 0%
- remaining activity at 0.5 µM: 0%
- remaining activity at 5 µM: 0%
- remaining activity at 500 µM: 0%
Compound: O=C(NCC(=O)N1CCCC1B(O)O)c1ccc(I)cc1 (stereo not shown) [Compound 1024, 1-(2-(4-iodobenzamido)acetyl)pyrrolidin-2-ylboronic acid]

- IC50: 2 nM
- remaining activity at 0.005 µM: 0%
- remaining activity at 0.05 µM: 0%
- remaining activity at 0.5 µM: 0%
- remaining activity at 5 µM: 0%
- remaining activity at 500 µM: 0%
Compound: O=C(NCC(=O)N1CCCC1B(O)O)c1cccc(I)c1 (stereo not shown) [Compound 1025, 1-(2-(3-iodobenzamido)acetyl)pyrrolidin-2-ylboronic acid]

- IC50 values against seprase (in words): low nanomolar range
- IC50: 2 nM
Compound: O=C(NCC(=O)N1CCCC1B(O)O)c1ccc2cc(I)ccc2c1 (stereo not shown) [Compound 1030, 1-(2-(6-iodo-2-naphthamido)acetyl)pyrrolidin-2-ylboronic acid]
